Experimental data taken from US20230143612A1 (Arbutus Biopharma Corporation, priority 2020, published 2023).
pIC50: −log10 of the molar value.

Biological target: PD-L1 His protein / PD-1 Fc protein (Homo sapiens, UniProt Q9NZQ7)
Assay: HTRF Assay (PD-1/PD-L1 interaction)
Type: binding
Settings: PD-L1 His 6 nM, PD-1 Fc 6 nM
Method in brief: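 Compounds tested from 20 μM down to 0.001 μM (3-fold) against 6 nM PD-L1 His and 6 nM PD-1 Fc, 15 min room temperature incubation. Detection after 1 h at room temperature with Tb cryptate anti-6HIS and XL665 anti-human IgG reagents (mixture at 0.35 nM and 6.7 nM), HTRF signal.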

Sequence of PD-L1 His protein / PD-1 Fc protein (Q9NZQ7 19-238 limits assumed): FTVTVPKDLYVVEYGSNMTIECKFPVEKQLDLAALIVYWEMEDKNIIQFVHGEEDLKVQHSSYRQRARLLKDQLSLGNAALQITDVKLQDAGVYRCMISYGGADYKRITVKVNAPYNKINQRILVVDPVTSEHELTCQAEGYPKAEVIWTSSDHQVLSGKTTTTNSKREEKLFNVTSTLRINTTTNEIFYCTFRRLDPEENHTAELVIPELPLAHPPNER

Row | Structure (SMILES) | pIC50
1 | COc1nc(-c2cccc(-c3cccc(-c4cc5c(=O)n(C)c(CN[C@H]6C[C@](C)(O)C6)nn5c4)c3Cl)c2Cl)ccc1CNC[C@@H]1CCC(=O)N1 [Example 332, 6-(2,2′-Dichloro-3′-(6-methoxy-5-(((((S)-5-oxopyrrolidin-2-yl)methyl)amino)methyl)pyridin-2-yl)-[1,1′-biphenyl]-3-yl)-2-((((1r,3r)-3-hydroxy-3-methylcyclobutyl)amino)methyl)-3-methylpyrrolo[2,1-f][1,2,4]triazin-4(3H)-one] | 6.30
2 | COc1nc(-c2cccc(-c3cccc(-c4cc5ncc(CNC[C@H](C)O)cc5cn4)c3Cl)c2Cl)ccc1CNC[C@@H]1CCC(=O)N1 [Example 333, (S)-5-((((6-(2,2′-Dichloro-3′-(3-((((S)-2-hydroxypropyl)amino)methyl)-1,6-naphthyridin-7-yl)-[1,1′-biphenyl]-3-yl)-2-methoxypyridin-3-yl)methyl)amino)methyl)pyrrolidin-2-one] | 9.15
3 | COc1nc(-c2cccc(-c3cccc(-c4cc5ncc(CNCCO)cc5cn4)c3Cl)c2Cl)ccc1CNC[C@@H]1CCC(=O)N1 [Example 334, (S)-5-((((6-(2,2′-Dichloro-3′-(3-(((2-hydroxyethyl)amino)methyl)-1,6-naphthyridin-7-yl)-[1,1′-biphenyl]-3-yl)-2-methoxypyridin-3-yl)methyl)amino)methyl)pyrrolidin-2-one] | 10.00
4 | COc1nc(-c2cccc(-c3cccc(-c4ccn5c(=O)c(CNC[C@@H]6CCC(=O)N6)cnc5c4)c3Cl)c2Cl)cc(Cl)c1CNC[C@@H]1CCC(=O)N1 [Example 335, 8-[2-Chloro-3-[2-chloro-3-[4-chloro-6-methoxy-5-[[[(2S)-5-oxopyrrolidin-2-yl]methylamino]methyl]-2-pyridyl]phenyl]phenyl]-3-[[[(2S)-5-oxopyrrolidin-2-yl]methylamino]methyl]pyrido[1,2-a]pyrimidin-4-one] | 8.68
5 | COc1nc(-c2cccc(-c3cccc(-c4ccn5c(=O)c(CNC[C@@H](O)CC(=O)N(C)C)cnc5c4)c3Cl)c2Cl)cc(F)c1CNC[C@@H]1CCC(=O)N1 [Example 336, (3S)-4-[[8-[2-Chloro-3-[2-chloro-3-[4-fluoro-6-methoxy-5-[[[(2S)-5-oxopyrrolidin-2-yl]methylamino]methyl]-2-pyridyl]phenyl]phenyl]-4-oxo-pyrido[1,2-a]pyrimidin-3-yl]methylamino]-3-hydroxy-N,N-dimethyl-butanamide] | 10.00
6 | COc1cc(Cl)c(CNC[C@H]2CCC(=O)N2)c(-c2cccc(-c3cccc(-c4ccn5c(=O)c(CNC[C@@H]6CCC(=O)N6)cnc5c4)c3Cl)c2Cl)n1 [Example 337, 8-[2-chloro-3-[2-chloro-3-[4-chloro-6-methoxy-3-[[[(2R)-5-oxopyrrolidin-2-yl]methylamino]methyl]-2-pyridyl]phenyl]phenyl]-3-[[[(2S)-5-oxopyrrolidin-2-yl]methylamino]methyl]pyrido[1,2-a]pyrimidin-4-one] | 7.33
7 | COc1nc(-c2cccc(-c3cccc(-c4ccc5nc(CNC[C@@H]6CCC(=O)N6)cn5n4)c3Cl)c2Cl)ccc1CNC[C@@H]1CCC(=O)N1 [Example 338, (5S)-5-[[[6-[2-Chloro-3-[2-chloro-3-[2-[[[(2S)-5-oxopyrrolidin-2-yl]methylamino]methyl]imidazo[1,2-b]pyridazin-6-yl]phenyl]phenyl]-2-methoxy-3-pyridyl]methylamino]methyl]pyrrolidin-2-one] | 9.52
8 | COc1nc(-c2cccc(-c3cccc(-c4ccc5nc(CN(C)CCO)cn5n4)c3Cl)c2Cl)ccc1CN(C)CCO [Example 339, 2-[[6-[2-Chloro-3-[2-chloro-3-[2-[[2-hydroxyethyl(methyl)amino]methyl]imidazo[1,2-b]pyridazin-6-yl]phenyl]phenyl]-2-methoxy-3-pyridyl]methyl-methyl-amino]etanol] | 7.59
9 | COc1nc(-c2cccc(-c3cccc(-c4ccc5nc(CNC[C@H](C)O)cn5n4)c3Cl)c2Cl)ccc1CNC[C@H](C)O [Example 340, (2S)-1-[[6-[2-Chloro-3-[2-chloro-3-[2-[[[(2S)-2-hydroxypropyl]amino]methyl]imidazo[1,2-b]pyridazin-6-yl]phenyl]phenyl]-2-methoxy-3-pyridyl]methylamino]propan-2-ol] | 8.46
10 | CNC(=O)C(C)(C)NCc1cc(=O)n2ccc(-c3cccc(-c4cccc(-c5ccc(CNC[C@@H]6CCC(=O)N6)c(OC)n5)c4Cl)c3Cl)cc2n1 [Example 341, (S)-2-(((8-(2,2′-Dichloro-3′-(6-methoxy-5-((((5-oxopyrrolidin-2-yl)methyl)amino)methyl)pyridin-2-yl)-[1,1′-biphenyl]-3-yl)-4-oxo-4H-pyrido[1,2-a]pyrimidin-2-yl)methyl)amino)-N,2-dimethylpropanamide] | 10.00
11 | COc1nc(-c2cccc(-c3cccc(-c4ccn5c(=O)cc(CN6C[C@@H](O)CC6=O)nc5c4)c3Cl)c2Cl)ccc1CNC[C@@H]1CCC(=O)N1 [Example 342, 8-(2,2′-Dichloro-3′-(6-methoxy-5-(((((S)-5-oxopyrrolidin-2-yl)methyl)amino)methyl)pyridin-2-yl)-[1,1′-biphenyl]-3-yl)-2-(((S)-4-hydroxy-2-oxopyrrolidin-1-yl)methyl)-4H-pyrido[1,2-a]pyrimidin-4-one] | 10.00
12 | COC(=O)C1CN(Cc2cc(=O)n3ccc(-c4cccc(-c5cccc(-c6ccc(CNC[C@@H]7CCC(=O)N7)c(OC)n6)c5Cl)c4Cl)cc3n2)C1 [Example 343, (S)-Methyl 1-((8-(2,2′-dichloro-3′-(6-methoxy-5-((((5-oxopyrrolidin-2-yl)methyl)amino)methyl)pyridin-2-yl)-[1,1′-biphenyl]-3-yl)-4-oxo-4H-pyrido[1,2-a]pyrimidin-2-yl)methyl) azetidine-3-carboxylate] | 10.00
13 | COc1nc(-c2cccc(-c3cccc(-c4ccc5c(c4)CCCNC5)c3Cl)c2Cl)ccc1CNC[C@@H]1CCC(=O)N1 [Example 344, (S)-5-((((6-(2,2′-Dichloro-3′-(2,3,4,5-tetrahydro-1H-benzo[c]azepin-7-yl)-[1,1′-biphenyl]-3-yl)-2-methoxypyridin-3-yl)methyl)amino)methyl)pyrrolidin-2-one] | 6.24
14 | COc1nc(-c2cccc(-c3cccc(-c4ccn5c(=O)c(CNCC(C)(C)OC)cnc5c4)c3Cl)c2Cl)ccc1CNC[C@@H]1CCC(=O)N1 [Example 345, (S)-8-(2,2′-Dichloro-3′-(6-methoxy-5-((((5-oxopyrrolidin-2-yl)methyl)amino)methyl)pyridin-2-yl)-[1,1′-biphenyl]-3-yl)-3-(((2-methoxy-2-methylpropyl)amino)methyl)-4H-pyrido[1,2-a]pyrimidin-4-one] | 7.38
15 | COc1nc(-c2cccc(-c3cccc(-c4ccn5c(=O)c(CN6CC7(CC(O)C7)C6)cnc5c4)c3Cl)c2Cl)ccc1CNC[C@@H]1CCC(=O)N1 [Example 346, (S)-8-(2,2′-Dichloro-3′-(6-methoxy-5-((((5-oxopyrrolidin-2-yl)methyl)amino)methyl)pyridin-2-yl)-[1,1′-biphenyl]-3-yl)-3-((6-hydroxy-2-azaspiro[3.3]heptan-2-yl)methyl)-4H-pyrido[1,2-a]pyrimidin-4-one] | 5.89
16 | COc1nc(-c2cccc(-c3cccc(-c4ccn5c(=O)c(CN6C[C@@H](O)[C@H](O)C6)cnc5c4)c3Cl)c2Cl)ccc1CNC[C@@H]1CCC(=O)N1 [Example 347, 8-(2,2′-Dichloro-3′-(6-methoxy-5-(((((S)-5-oxopyrrolidin-2-yl)methyl)amino)methyl)pyridin-2-yl)-[1,1′-biphenyl]-3-yl)-3-(((3R,4R)-3,4-dihydroxypyrrolidin-1-yl)methyl)-4H-pyrido[1,2-a]pyrimidin-4-one] | 6.28
17 | COc1nc(-c2cccc(-c3cccc(-c4ccn5c(=O)c(CN[C@H]6C[C@](C)(O)C6)c(OC)nc5c4)c3Cl)c2Cl)ccc1CNC[C@@H]1CCC(=O)N1 [Example 348, 8-(2,2′-Dichloro-3′-(6-methoxy-5-(((((S)-5-oxopyrrolidin-2-yl)methyl)amino)methyl)pyridin-2-yl)-[1,1′-biphenyl]-3-yl)-3-((((1r,3r)-3-hydroxy-3-methylcyclobutyl)amino)methyl)-2-methoxy-4H-pyrido[1,2-a]pyrimidin-4-one] | 8.66
18 | CNC(=O)C1(NCc2cc(=O)n3ccc(-c4cccc(-c5cccc(-c6ccc(CNC[C@@H]7CCC(=O)N7)c(OC)n6)c5Cl)c4Cl)cc3n2)CC1 [Example 349, (S)-1-(((8-(2,2′-Dichloro-3′-(6-methoxy-5-((((5-oxopyrrolidin-2-yl)methyl)amino)methyl)pyridin-2-yl)-[1,1′-biphenyl]-3-yl)-4-oxo-4H-pyrido[1,2-a]pyrimidin-2-yl)methyl)amino)-N-methylcyclopropanecarboxamide] | 9.70
19 | COc1nc(-c2cccc(-c3cccc(-c4cc5c(=O)n(C)c(CNC[C@H](C)O)nn5c4)c3Cl)c2Cl)ccc1CNC[C@@H]1CCC(=O)N1 [Example 350, 6-(2,2′-Dichloro-3′-(6-methoxy-5-(((((S)-5-oxopyrrolidin-2-yl)methyl)amino)methyl)pyridin-2-yl)-[1,1′-biphenyl]-3-yl)-2-((((S)-2-hydroxypropyl)amino)methyl)-3-methylpyrrolo[2,1-f][1,2,4]triazin-4(3H)-one] | 10.00
20 | COc1nc(-c2cccc(-c3cccc(-c4cc5c(=O)n(C)c(CNCCO)nn5c4)c3Cl)c2Cl)ccc1CNC[C@@H]1CCC(=O)N1 [Example 351, (S)-6-(2,2′-Dichloro-3′-(6-methoxy-5-((((5-oxopyrrolidin-2-yl)methyl)amino)methyl)pyridin-2-yl)-[1,1′-biphenyl]-3-yl)-2-(((2-hydroxyethyl)amino)methyl)-3-methylpyrrolo[2,1-f][1,2,4]triazin-4(3H)-one] | 6.70
21 | COc1nc(-c2cccc(-c3cccc(-c4ccc5nc(CNCCO)cn5n4)c3Cl)c2Cl)ccc1CNC[C@@H]1CCC(=O)N1 [Example 352, (5S)-5-[[[6-[2-Chloro-3-[2-chloro-3-[2-[(2-hydroxyethylamino)methyl]imidazo[1,2-b]pyridazin-6-yl]phenyl]phenyl]-2-methoxy-3-pyridyl]methylamino]methyl]pyrrolidin-2-one] | 9.30
